Assays:
barnyardgrass [1] = experiment: Test C flooded paddy test; type: in vivo, Echinochloa crus-galli; conditions: Flood, scale 0 to 100 (0 no effect, 100 complete control), 13 to 15 days
How it was run: (§1)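 Greenhouse pots flooded to 3 cm above soil at time of treatment received compound via the water, which stayed at that level.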

pigweed [2] = experiment: Test A preemergence; type: in vivo, Amaranthus retroflexus
How it was run: (§2)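 Scoring: eye-based comparison with untreated controls, 0 for no effect through 100 for complete control, at about day 10. Treatments: directed soil spray preemergence; foliar spray postemergence on 2–10 cm plants at the one- to two-leaf stage. Medium: loam soil with sand.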

barnyardgrass [3] = experiment: Test B flooded paddy test; type: in vivo, Echinochloa crus-galli; conditions: Flood, 250 g ai/ha; 0 to 100 scale where 0 is no effect and 100 is complete control
How it was run: (§3)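 Plants at 2-leaf stage; pots flooded to 3 cm above soil and compound applied directly into paddy water, depth held throughout. After 13 to 15 days in greenhouse, visual rating versus controls on 0 (no effect) to 100 (complete control) scale.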

sedge, umbrella [4] = experiment: Test C flooded paddy test; type: in vivo, Cyperus difformis; conditions: Flood, scale 0 to 100 (0 no effect, 100 complete control), 13 to 15 days
How it was run: as §1

barnyardgrass [5] = experiment: Test A postemergence; type: in vivo, Echinochloa crus-galli
How it was run: as §2

ducksalad = experiment: Test C flooded paddy test; type: in vivo, Heteranthera limosa; conditions: Flood, scale 0 to 100 (0 no effect, 100 complete control), 13 to 15 days
How it was run: as §1

velvetleaf [6] = experiment: Test A postemergence; type: in vivo, Abutilon theophrasti; conditions: 0 to 100 scale where 0 is no effect and 100 is complete control
How it was run: as §2

wheat [7] = experiment: Test A preemergence; type: in vivo, Triticum aestivum
How it was run: as §2

Heteranthera limosa = experiment: Test B flooded paddy test; type: in vivo; conditions: Flood, 250 g ai/ha; 0 to 100 scale where 0 is no effect and 100 is complete control
How it was run: as §3

pigweed [8] = experiment: Test A postemergence; type: in vivo, Amaranthus retroflexus; conditions: 0 to 100 scale where 0 is no effect and 100 is complete control
How it was run: as §2

large (Lg) crabgrass [9] = experiment: Test A postemergence; type: in vivo, Digitaria sanguinalis
How it was run: as §2

barnyardgrass [10] = experiment: Test A preemergence; type: in vivo, Echinochloa crus-galli
How it was run: as §2

rice [11] = experiment: Test C flooded paddy test; type: in vivo, Oryza sativa; conditions: Flood, scale 0 to 100 (0 no effect, 100 complete control), 13 to 15 days
How it was run: as §1

giant foxtail [12] = experiment: Test A preemergence; type: in vivo, Setaria faberii
How it was run: as §2

large (Lg) crabgrass [13] = experiment: Test A preemergence; type: in vivo, Digitaria sanguinalis
How it was run: as §2

wheat [14] = experiment: Test A postemergence; type: in vivo, Triticum aestivum; conditions: 0 to 100 scale where 0 is no effect and 100 is complete control
How it was run: as §2

giant foxtail [15] = experiment: Test A postemergence; type: in vivo, Setaria faberii; conditions: 0 to 100 scale where 0 is no effect and 100 is complete control
How it was run: as §2

velvetleaf [16] = experiment: Test A preemergence; type: in vivo, Abutilon theophrasti
How it was run: as §2

morningglory [17] = experiment: Test A postemergence; type: in vivo, Ipomoea spp.; conditions: 0 to 100 scale where 0 is no effect and 100 is complete control
How it was run: as §2

corn [18] = experiment: Test A preemergence; type: in vivo, Zea mays
How it was run: as §2

sedge, umbrella [19] = experiment: Test B flooded paddy test; type: in vivo, Cyperus difformis; conditions: Flood, 250 g ai/ha; 0 to 100 scale where 0 is no effect and 100 is complete control
How it was run: as §3

rice [20] = experiment: Test B flooded paddy test; type: in vivo, Oryza sativa; conditions: Flood, 250 g ai/ha; 0 to 100 scale where 0 is no effect and 100 is complete control
How it was run: as §3

morningglory [21] = experiment: Test A preemergence; type: in vivo, Ipomoea spp.
How it was run: as §2

corn [22] = experiment: Test A postemergence; type: in vivo, Zea mays
How it was run: as §2

[23] = 125 g ai/ha, 0 to 100 scale where 0 is no effect and 100 is complete control
[24] = 500 g ai/ha, 0 to 100 scale, 0 no effect, 100 complete control, approx. 10 days
[25] = 500 g ai/ha, 0 to 100 scale, 0 no effect, 100 complete control

FC(F)c1cnn(-c2ccccc2Oc2ncc(Br)cn2)c1 [Compound 81]
90: Plant response rating, Sedge, Umbrella (sedge, umbrella [4]; 250 g ai/ha) | Plant response rating, Ducksalad (ducksalad; 250 g ai/ha) | Plant response rating, Ducksalad (Heteranthera limosa) | Plant response rating, Crabgrass, Large (large (Lg) crabgrass [9]; [25]) | Plant response rating, Crabgrass, Large (large (Lg) crabgrass [13]; [23]) | Plant response rating, Foxtail, Giant (giant foxtail [15]; 500 g ai/ha)
50: Plant response rating, Sedge, Umbrella (sedge, umbrella [4]; 62 g ai/ha) | Plant response rating, Barnyardgrass (barnyardgrass [5]; [23]) | Plant response rating, Foxtail, Giant (giant foxtail [15]; 125 g ai/ha) | Plant response rating, Velvetleaf (velvetleaf [16]; [23]) | Plant response rating, Morningglory (morningglory [17]; 125 g ai/ha) | Plant response rating, Corn (corn [22]; [23])
40: Plant response rating, Ducksalad (ducksalad; 62 g ai/ha) | Plant response rating, Crabgrass, Large (large (Lg) crabgrass [9]; [23])
70: Plant response rating, Sedge, Umbrella (sedge, umbrella [4]; 125 g ai/ha) | Barnyardgrass plant response rating (barnyardgrass [10]; [24])
30: Plant response rating, Ducksalad (ducksalad; 31 g ai/ha) | Plant response rating, Corn (corn [22]; [25])
10: Plant response rating, Wheat (wheat [7]; [23]) | Wheat plant response rating (wheat [7]; [24]) | Plant response rating, Wheat (wheat [14]; 125 g ai/ha) | Corn plant response rating (corn [18]; [24])
60: Plant response rating, Ducksalad (ducksalad; 125 g ai/ha) | Plant response rating, Wheat (wheat [14]; 500 g ai/ha) | Morningglory plant response rating (morningglory [21]; [24])
0: Plant response rating, Barnyardgrass (barnyardgrass [1]; 31 g ai/ha) | Plant response rating, Barnyardgrass (barnyardgrass [1]; 62 g ai/ha) | Plant response rating, Barnyardgrass (barnyardgrass [1]; 125 g ai/ha) | Plant response rating, Barnyardgrass (barnyardgrass [1]; 250 g ai/ha) | Plant response rating, Pigweed (pigweed [2]; [23]) | Pigweed plant response rating (pigweed [2]; [24]) | Plant response rating, Barnyardgrass (barnyardgrass [3]) | Plant response rating, Sedge, Umbrella (sedge, umbrella [4]; 31 g ai/ha) | Plant response rating, Barnyardgrass (barnyardgrass [10]; [23]) | Plant response rating, Rice (rice [11]; 31 g ai/ha) | Plant response rating, Rice (rice [11]; 62 g ai/ha) | Plant response rating, Rice (rice [11]; 125 g ai/ha) | Plant response rating, Rice (rice [11]; 250 g ai/ha) | Plant response rating, Corn (corn [18]; [23]) | Plant response rating, Rice (rice [20]) | Plant response rating, Morningglory (morningglory [21]; [23])
80: Plant response rating, Foxtail, Giant (giant foxtail [12]; [23]) | Plant response rating, Sedge, Umbrella (sedge, umbrella [19])
100: Plant response rating, Barnyardgrass (barnyardgrass [5]; [25]) | Plant response rating, Velvetleaf (velvetleaf [6]; 125 g ai/ha) | Plant response rating, Velvetleaf (velvetleaf [6]; 500 g ai/ha) | Plant response rating, Pigweed (pigweed [8]; 125 g ai/ha) | Plant response rating, Pigweed (pigweed [8]; 500 g ai/ha) | Foxtail, Giant plant response rating (giant foxtail [12]; [24]) | Crabgrass, Large plant response rating (large (Lg) crabgrass [13]; [24]) | Velvetleaf plant response rating (velvetleaf [16]; [24]) | Plant response rating, Morningglory (morningglory [17]; 500 g ai/ha)

From patent US9695155B2, “Herbicidal substituted pyrimidinyloxy benzene compounds” (E. I. DU PONT DE NEMOURS AND COMPANY, priority 2013, dated 2017)
